Results on five molecules are retold here after patent publication US5019385A, “Novel lymphopine LK 2 and pharmaceutic compositions containing same” (Kabushiki Kaisha Hayashibara Seibutsu Kagaku Kenkyujo, priority 1984, dated 1991).

Counter-ions that a name gives are not always drawn.

For assay [1], the system named is MKN 7. Kind of assay: enhancement of antioncotic effect of chemotherapeutics by LK 2 (Experiment C-1, Table V). It counts as cell-based, human. Particulars: ACNU 1.0×10^-6, 5-FU 1.5×10^-8, ADM 1.0×10^-10, MMC 2.5×10^-9 g/ml culture, VCR 1.5×10^-10 g/culture. As to the method: (§1) One human malignant tumor cell suspension (10^6 cells) was inoculated on 1 ml of conventional-type nutrient culture medium supplemented with foetal calf serum, and then cultured for one day. Thereafter, there was added to the culture 0.1 ml of saline containing 100 units of an LK 2 specimen, prepared by the method in Experiment A-3, and/or a chemotherapeutic, and cultured for an additional two days at 37° C.
(§2) As the control, an LK 2- and chemotherapeutic-free saline was used.
(§3) After completion of the culture, the number of viable cells was counted in accordance with the method in Experiment B-1, and the growth inhibition (%) was then determined.
(§4) The concentrations of the tested chemotherapeutics were as follows: nimustine hydrochloride (ACNU), 1.0×10^-6 g/ml culture; fluorouracil (5-FU), 1.5×10^-8 g/ml culture; doxorubicin (ADM), 1.0×10^-10 g/ml culture; mitomycin C (MMC), 2.5×10^-9 g/ml culture; and vincristine sulfate (VCR), 1.5×10^-10 g/culture.

Assay [2] relates to PC-8. The assay is described as above. It counts as cell-based, human. The following applies: ACNU 1.0×10^-6, 5-FU 1.5×10^-8, ADM 1.0×10^-10, MMC 2.5×10^-9 g/ml culture, VCR 1.5×10^-10 g/culture. The procedure:
as §1, §2, §3, §4

Assay [3] deals with HeLa. The assay is described as above. Type of assay: cell-based, human. The following applies: ACNU 1.0×10^-6, 5-FU 1.5×10^-8, ADM 1.0×10^-10, MMC 2.5×10^-9 g/ml culture, VCR 1.5×10^-10 g/culture. The procedure:
as §1, §2, §3, §4

The subject of assay [4] is HLE. The assay is described as above. The following applies: ACNU 1.0×10^-6, 5-FU 1.5×10^-8, ADM 1.0×10^-10, MMC 2.5×10^-9 g/ml culture, VCR 1.5×10^-10 g/culture. Type of assay: cell-based, human. The procedure:
as §1, §2, §3, §4

The subject of assay [5] is HEp#2. The assay is described as above. Type of assay: cell-based, human. The following applies: ACNU 1.0×10^-6, 5-FU 1.5×10^-8, ADM 1.0×10^-10, MMC 2.5×10^-9 g/ml culture, VCR 1.5×10^-10 g/culture. The procedure:
as §1, §2, §3, §4

Assay [6] relates to human breast cancer tissue. The experiment in a line: tumor mass in nude mice, LK 2 and/or mitomycin C (Experiment C-2, Table VI). Type of assay: in vivo, human tissue in BALB/c nude mice. Particulars: MMC 1 mg/kg per day i.v., twenty days; control 10.8 ± 1.0; * significant vs control (5%). As to the method:
A group of BALB/c nude mice was transplanted subcutaneously in their dorsum areas with small fragments of human breast cancer tissue.
After the tumor masses grew to about 200 mm^3 in the bodies of the animals, saline containing an LK 2 preparation, obtained by the method described in Experiment A-3, and/or mitomycin C (MMC) was injected intravenously once every day for twenty days.
Thereafter, the animals were sacrificed, and the resultant tumor masses were weighed.
as §2

For `COc1cccc2c1C(=O)c1c(O)c3c(c(O)c1C2=O)C[C@@](O)(C(=O)CO)C[C@@H]3O[C@H]1C[C@H](N)[C@H](O)[C@H](C)O1` [ADM, doxorubicin], the “growth inhibition (%) to tumor cell” value came to 69% in assay [1] (+, with LK 2 100 units); 5% in assay [1] (-, without LK 2); 71% in assay [2] (+, with LK 2 100 units); 6% in assay [2] (-, without LK 2); 62% in assay [3] (+, with LK 2 100 units); 7% in assay [3] (-, without LK 2). In addition, the “growth inhibition (%) to tumor cell” value in assay [4] (+, with LK 2 100 units) is reported as 73%; in assay [4] (-, without LK 2), 7%; in assay [5] (+, with LK 2 100 units), 70%; in assay [5] (-, without LK 2), 13%.
Regarding `O=c1[nH]cc(F)c(=O)[nH]1` [5-FU, fluorouracil], the “growth inhibition (%) to tumor cell” value in assay [1] (+, with LK 2 100 units) came to 77%; in assay [1] (-, without LK 2), 6%; in assay [2] (+, with LK 2 100 units), 85%; in assay [2] (-, without LK 2) it was 10%; in assay [3] (+, with LK 2 100 units), 69%; in assay [3] (-, without LK 2), 12%. The “growth inhibition (%) to tumor cell” value in assay [4] (+, with LK 2 100 units) came to 81%; in assay [4] (-, without LK 2), 8%; in assay [5] (+, with LK 2 100 units) it was 80%; in assay [5] (-, without LK 2), 8%.
Consider `CO[C@@]12[C@H](COC(N)=O)C3=C(C(=O)C(C)=C(N)C3=O)N1C[C@@H]1N[C@@H]12` [MMC, mitomycin C], for which the “growth inhibition (%) to tumor cell” value in assay [1] (+, with LK 2 100 units) came out at 73%; in assay [1] (-, without LK 2), 3%; in assay [2] (+, with LK 2 100 units), 68%; in assay [2] (-, without LK 2) it was 5%; in assay [3] (+, with LK 2 100 units) it was 61%; in assay [3] (-, without LK 2), 7%. In addition, the “growth inhibition (%) to tumor cell” value in assay [4] (+, with LK 2 100 units) was 74%; in assay [4] (-, without LK 2), 12%; in assay [5] (+, with LK 2 100 units) it was 72%; in assay [5] (-, without LK 2) it was 10%. For the same molecule, the “Tumor mass” value in assay [6] is 5.1 ± 0.4 g.
Regarding `Cc1ncc(CNC(=O)N(CCCl)N=O)c(N)n1` [ACNU, nimustine hydrochloride], the “growth inhibition (%) to tumor cell” value in assay [1] (+, with LK 2 100 units) turned out to be 73%; in assay [1] (-, without LK 2), 4%; in assay [2] (+, with LK 2 100 units), 71%; in assay [2] (-, without LK 2) it was 2%; in assay [3] (+, with LK 2 100 units), 71%; in assay [3] (-, without LK 2), 5%. For the same molecule, the “growth inhibition (%) to tumor cell” value in assay [4] (+, with LK 2 100 units) was determined as 75%; in assay [4] (-, without LK 2) it was 5%; in assay [5] (+, with LK 2 100 units), 67%; in assay [5] (-, without LK 2) it was 4%.
Take `CC[C@]1(O)C[C@H]2CN(CCc3c([nH]c4ccccc34)[C@@](C(=O)OC)(c3cc4c(cc3OC)N(C=O)[C@H]3[C@@](O)(C(=O)OC)[C@H](OC(C)=O)[C@]5(CC)C=CCN6CC[C@]43[C@@H]65)C2)C1` (stereo in doubt) [VCR, vincristine sulfate]: the “growth inhibition (%) to tumor cell” value in assay [1] (+, with LK 2 100 units) worked out at 70%; in assay [1] (-, without LK 2) it was 6%; in assay [2] (+, with LK 2 100 units), 72%; in assay [2] (-, without LK 2), 8%; in assay [3] (+, with LK 2 100 units), 63%; in assay [3] (-, without LK 2) it was 10%. In addition, the “growth inhibition (%) to tumor cell” value in assay [4] (+, with LK 2 100 units) stood at 69%; in assay [4] (-, without LK 2) it was 10%; in assay [5] (+, with LK 2 100 units) it was 66%; in assay [5] (-, without LK 2), 5%.
